What was measured:
[1] = Clinical crossover study: iohexol clearance; assay type: in vivo, human; settings: for clearance: human, plasma, intravenous
OCT2 = target: T1, OCT2 (Homo sapiens, UniProt O15244); experiment: Inhibition of OCT2-mediated; assay type: cell-based; settings: sum of unbound Cmax/IC50 of abemaciclib, M2 and M20
T1 sequence (O15244 1-555): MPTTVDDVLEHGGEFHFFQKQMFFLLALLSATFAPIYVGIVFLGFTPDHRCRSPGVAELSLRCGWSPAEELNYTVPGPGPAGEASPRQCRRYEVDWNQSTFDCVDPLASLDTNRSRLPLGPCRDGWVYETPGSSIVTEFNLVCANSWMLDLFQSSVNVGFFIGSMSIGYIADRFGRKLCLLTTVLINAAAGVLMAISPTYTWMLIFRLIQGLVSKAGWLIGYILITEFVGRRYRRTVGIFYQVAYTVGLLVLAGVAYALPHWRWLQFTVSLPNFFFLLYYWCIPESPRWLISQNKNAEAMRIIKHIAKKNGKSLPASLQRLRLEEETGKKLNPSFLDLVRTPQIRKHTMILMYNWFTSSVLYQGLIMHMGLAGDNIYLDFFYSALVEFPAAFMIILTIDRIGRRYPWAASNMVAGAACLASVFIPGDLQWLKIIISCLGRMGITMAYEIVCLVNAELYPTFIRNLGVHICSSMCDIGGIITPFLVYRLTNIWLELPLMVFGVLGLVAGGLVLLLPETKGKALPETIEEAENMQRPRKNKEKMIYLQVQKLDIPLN

MATE1 = target: T2, MATE1 (Homo sapiens, UniProt Q96FL8); experiment: Inhibition of MATE1-mediated; assay type: cell-based; settings: sum of unbound Cmax/IC50 of abemaciclib, M2 and M20
T2 sequence (Q96FL8 1-570): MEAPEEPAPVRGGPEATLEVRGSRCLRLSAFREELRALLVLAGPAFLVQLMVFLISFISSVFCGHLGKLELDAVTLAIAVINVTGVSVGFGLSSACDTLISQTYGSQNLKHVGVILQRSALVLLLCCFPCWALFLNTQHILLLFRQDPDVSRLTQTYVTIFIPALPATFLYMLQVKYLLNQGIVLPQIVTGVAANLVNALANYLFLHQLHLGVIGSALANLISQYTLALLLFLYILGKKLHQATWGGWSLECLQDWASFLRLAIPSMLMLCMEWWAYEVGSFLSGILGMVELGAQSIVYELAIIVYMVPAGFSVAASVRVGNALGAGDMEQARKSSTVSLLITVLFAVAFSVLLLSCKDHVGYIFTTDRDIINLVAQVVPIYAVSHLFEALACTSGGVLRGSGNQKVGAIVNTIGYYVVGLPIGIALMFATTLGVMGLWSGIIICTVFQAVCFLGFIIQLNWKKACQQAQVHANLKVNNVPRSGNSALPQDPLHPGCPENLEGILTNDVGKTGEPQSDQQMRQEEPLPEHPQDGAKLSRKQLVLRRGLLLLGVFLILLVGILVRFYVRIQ

MATE2-K = MATE2-K (Homo sapiens, UniProt Q86VL8); experiment: Inhibition of MATE2-K-mediated; assay type: cell-based; settings: sum of unbound Cmax/IC50 of abemaciclib, M2 and M20
[2] = Clinical study: serum creatinine and estimated GFR after abemaciclib; assay type: in vivo, human
[3] = Clinical study: renal injury biomarkers; assay type: in vivo, human
[4] = patients with cancer and healthy subjects; cited from earlier work

Chain of MATE2-K (Q86VL8 1-566 isoform Q86VL8-3): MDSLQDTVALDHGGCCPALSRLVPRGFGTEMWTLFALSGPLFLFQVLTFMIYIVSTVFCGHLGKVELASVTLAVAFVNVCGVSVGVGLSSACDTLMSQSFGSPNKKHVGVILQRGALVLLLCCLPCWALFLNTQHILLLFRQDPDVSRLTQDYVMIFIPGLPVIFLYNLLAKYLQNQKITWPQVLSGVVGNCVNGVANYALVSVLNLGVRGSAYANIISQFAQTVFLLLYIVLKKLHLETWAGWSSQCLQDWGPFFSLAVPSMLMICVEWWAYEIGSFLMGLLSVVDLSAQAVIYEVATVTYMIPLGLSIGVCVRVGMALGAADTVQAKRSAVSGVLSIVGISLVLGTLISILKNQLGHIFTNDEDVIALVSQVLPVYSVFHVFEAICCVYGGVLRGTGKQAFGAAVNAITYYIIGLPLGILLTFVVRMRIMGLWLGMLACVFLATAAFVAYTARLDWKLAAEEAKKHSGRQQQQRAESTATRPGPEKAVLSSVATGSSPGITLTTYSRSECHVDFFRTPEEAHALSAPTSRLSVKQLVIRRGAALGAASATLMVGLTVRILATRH

clearance [1] [mL/min]	clearance ([1]; 3235 mg) [mL/min]	Combined DDI index, OCT2 (OCT2)	Combined DDI index, MATE1 (MATE1)	Combined DDI index, MATE2-K (MATE2-K)	Effect of coadministration on iohexol PK ([1]; 400 mg abemaciclib with iohexol)	eGFR (CKD-EPI equation using SCr) ([2]; abemaciclib in combination with iohexol) [mL/minute/1.73 m^2]	eGFR (CKD-EPI equation using SCr) ([2]; abemaciclib in combination with metformin) [mL/minute/1.73 m^2]	eGFR calculated using serum cystatin-C ([2]; abemaciclib vs. placebo periods)	Mean increase in SCr concentration ([2]; between 10 and 12 hours postdose, 400 mg abemaciclib, healthy subjects) [µmol/L]	Reversible increase in SCr expected in patients ([2]; patients dosed with abemaciclib, suggested by the findings)	Time of peak SCr elevation ([2]; post abemaciclib dose) [h]	SMILES	Trends in serum cystatin-C or NGAL indicative of renal injury ([3]; abemaciclib with either metformin or iohexol)	Creatinine-normalized urinary concentrations of NGAL and KIM-1 ([3]; following abemaciclib dosing)	Reversible increase in serum creatinine over baseline [4]
85.6	89											CC(=O)N(CC(O)CO)c1c(I)c(C(=O)NCC(O)CO)c(I)c(C(=O)NCC(O)CO)c1I (stereo not drawn) [iohexol]			
		0.03	0.13	0.06	did not affect	53.6	57.2	did not change	35.7 to 44.6	10–40%	12	CCN1CCN(Cc2ccc(Nc3ncc(F)c(-c4cc(F)c5nc(C)n(C(C)C)c5c4)n3)nc2)CC1 [Abemaciclib]	no trends	No notable change	15–40%
